What was measured:
Type in all cases: physicochemical
[1] = Photochromic properties of photochromic cured product prepared by kneading method; settings: 0.106 mmol per 100 g monomer; for A23: 1 mm cured product, 23°C color optical density ε(300)-ε(0); for Maximum absorption wavelength: 1 mm thiourethane cured product, after color development
Method: (§1) • [1] Maximum Absorption Wavelength (λmax): The maximum absorption wavelength after color development, measured using a spectrophotometer (instantaneous multichannel photodetector MCPD3000) manufactured by Otsuka Electronics Co., Ltd. was used as an indicator for the color tone during the color development. • [2] 23°C Color Optical Density (A23): A difference between an absorbancy measured after light irradiation at 23°C for 300 seconds {ε(300)} and an absorbancy without light irradiation ε(0) at the maximum absorption wavelength was used as an indicator for the color optical density. […] 23°C color fading half-life [τ1/2 (sec.)]: A time required for the absorbancy of the sample at the maximum absorption wavelength to decrease to 1/2 of {ε(300)-ε(0)} when the light irradiation was terminated after the light irradiation at 23°C for 300 seconds, was used as an indicator for the color fading speed. The shorter this time, the higher the color fading speed. • [4] Residual rate (A120/A0×100): The obtained photochromic plastic lens was subjected to accelerated deterioration using a xenon weather meter X25 manufactured by Suga Test Instruments Co., Ltd. for 120 hours. Subsequently, the color optical density was evaluated before and after the test, then a color optical density before the test (A0) and a color optical density after the test (A120) were measured, and a ratio (A120/A0) was defined as a residual rate. The residual rate was used as an indicator for a color developing durability. The higher the residual rate, the higher the color developing durability. The results of Examples 26, 50, and Comparative Examples 1 to 8 are summarized in Table 1, and the results of Examples 27 to 49 are summarized in Tables 2 and 3.
(§2) First, the photochromic compound obtained in Example 1, additives, and a polymerizable compound were mixed to obtain a curable composition.
(§3) As the polymerizable compound, a combination of the following polymerizable monomers was used. • 1,3-bis(isocyanatomethyl)cyclohexane: 36.7 parts by mass Pentaerythritol tetrakis(3-mercaptopropionate): 39.4 parts by mass • Polyoxyethylene polyoxypropylene lauryl ether (Wonder Surf 140 manufactured by Aoki Oil Industrial Co., Ltd.): 17.4 parts by mass • 1-decanethiol: 2.8 parts by mass • RX-1 adjusted according to the method described in Patent Document 13: 3.8 parts by mass
(§4) Note that the photochromic compound was added to the curable composition so that the amount of the photochromic compound was 0.106 mmol based on 100 g of the total amount of the polymerizable monomer. The following additives were used: Dimethyltin dichloride • : 0.05 part by mass • Irganox 245: 0.1 part by mass • 2-ethylhexyl 4-methoxycinnamate: 0.6 part by mass
(§5) The prepared curable composition was thoroughly defoamed, then injected into a glass mold having a 1 mm gap, and polymerized by cast polymerization. The polymerization was carried out in an air furnace while gradually raising the temperature from 27°C to 120°C over 18 hours. After the polymerization, the cured product was removed from the glass mold to obtain a photochromic cured product having a thickness of 1 mm. The obtained photochromic cured product was evaluated in the same manner as in Example 26.
(§6) (Examples 85 to 99, and Comparative Example 14 to 18) Photochromic cured products were prepared using photochromic compounds presented in Tables 6 and 7 in the same manner as in Example 84. The results of Examples 84 and 85 and Comparative Examples 14 to 18 are summarized in Table 6, and the results of Examples 86 to 99 are summarized in Table 7.

[2] = Accelerated deterioration (xenon weather meter X25, 120 hours) of photochromic cured product prepared by kneading method; settings: 1 mm cured product, 0.106 mmol per 100 g monomer, A120/A0×100 after 120 hours xenon weather meter
Method: as §1, §2, §3, §4, §5, §6

[3] = Accelerated deterioration (xenon weather meter X25, 120 hours) of photochromic laminate prepared by coating method; settings: 0.25 mmol per 100 g monomers, A120/A0×100 after 120 hours xenon weather meter
Procedure, shortened: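 Photochromic compound at 0.25 mmol per 100 g of methacrylate monomers, spin-coated as a 40 µm layer on a primed 1.60-index thiourethane lens, then light-cured and heated at 110°C for 1 h. Color optical density at λmax (23°C, 300 s irradiation) measured before (A0) and after 120 h xenon exposure (A120). Residual rate = A120/A0×100.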

| A23 [1] | Maximum absorption wavelength [1] | Residual rate [2] | Residual rate [3] | SMILES | further results |
| --- | --- | --- | --- | --- | --- |
| 0.51 - | 476 nm | 68% | 60% | COCCOCCC1(CCOCCOC)c2cc(C)ccc2-c2c1c1c(c3cc(C)ccc23)OC(c2ccc(N(C)c3ccc(F)cc3)cc2)(c2ccc(OC)c(OC)c2)C=C1 (centres unmarked) [Example 8] | A23 ([1]; listed as Formula (57)): 1.24 -; Maximum absorption wavelength ([1]; listed as Formula (57)): 604 nm |
| 0.59 - | 472 nm | 61% | 55% | CCCC1(CCC)c2cc(OC)ccc2-c2c1c1c(c3cc(OC)ccc23)OC(c2ccc(OC)cc2)(c2ccc(N(C)c3ccccc3)cc2)C=C1 (centres unmarked) [Example 3] | A23 ([1]; listed as Formula (46)): 1.16 -; Maximum absorption wavelength ([1]; listed as Formula (46)): 619 nm |
| 0.62 - | 490 nm | 68% | 60% | CCCCC1(CCCC)c2cc(-c3ccc(OC(C)C)cc3)ccc2-c2c1c1c(c3cc(OC)ccc23)OC(c2ccc(N(C)c3ccccc3)cc2)(c2ccc(OC)c(F)c2)C=C1 (centres unmarked) [Example 21] | A23 ([1]; listed as Formula (83)): 1.25 -; Maximum absorption wavelength ([1]; listed as Formula (83)): 616 nm |
| 0.47 - | 475 nm | 64% | 57% | CCC1(CC)CCC2(CC1)c1cc(OC(F)(F)F)ccc1-c1c2c2c(c3cc(OC)ccc13)OC(c1ccc(N(C)c3ccccc3)cc1)(c1ccc(OC)c(C)c1)C=C2 (centres unmarked) [Example 16] | A23 ([1]; listed as Formula (77)): 0.86 -; Maximum absorption wavelength ([1]; listed as Formula (77)): 593 nm |
| 1.41 - | 519 nm | 68% | 60% | CCCCN(c1ccccc1)c1ccc(C2(c3ccc(C)cc3)C=Cc3c4c(c5cc(N6CCOCC6)c(OC)cc5c3O2)-c2ccccc2C4(CC)CC)cc1 (centres unmarked) [Example 10] | A23 ([1]; listed as Formula (62)): 1.09 -; Maximum absorption wavelength ([1]; listed as Formula (62)): 600 nm; Residual rate ([2]; listed as Formula (62)): 70%; Residual rate ([3]; listed as Formula (62)): 64% |
| 0.87 - | 496 nm | 73% | 64% | CCCC1(CCC)c2ccccc2-c2c1c1c(c3cc(OC)c(-c4ccc(OC)cc4OC)cc23)OC(c2ccc(C)cc2)(c2ccc(N(C)c3ccccc3)cc2)C=C1 (centres unmarked) [Example 19] | A23 ([1]; listed as Formula (80)): 1.15 -; Maximum absorption wavelength ([1]; listed as Formula (80)): 610 nm |
| 0.88 - | 505 nm | 68% | 63% | CCN(c1ccc(OC)cc1)c1ccc(C2(c3ccc(OC)cc3)C=Cc3c4c(c5cc(-c6ccc(N7CCOCC7)cc6)c(OC)cc5c3O2)-c2ccccc2C4(C)C)cc1 (centres unmarked) [Example 25] | A23 ([1]; listed as Formula (88)): 0.96 -; Maximum absorption wavelength ([1]; listed as Formula (88)): 613 nm |
| 0.46 - | 486 nm | 68% | 60% | COCCOCCOCCOCCC1(CCOCCOCCOCCOC)c2cc(C(F)(F)F)ccc2-c2c1c1c(c3cc(OC)c(OC)cc23)OC(c2ccc(OC)cc2)(c2ccc(N(C)c3ccccc3)cc2)C=C1 (centres unmarked) [Example 51] | A23 ([1]; listed as Formula (89)): 0.45 -; Maximum absorption wavelength ([1]; listed as Formula (89)): 612 nm |

— EP4692072A1, “PHOTOCHROMIC COMPOUND, PROPARGYL ALCOHOL COMPOUND, CURABLE COMPOSITION, OPTICAL ARTICLE, LENS, AND SPECTACLES” (TOKUYAMA CORPORATION, priority 2023, dated 2024)
